Experimental data reported in patent publication US6489537B1 (priority 1998, dated 2002).
Where “and” joins values, the source holds several entries; their conditions need not be identical. Identical values can stand only once. Like-named read-outs stand apart in the source and are kept apart here.

Columns and labels:
[1] = tested on: S. cerevisiae ycf1Δ mutant strain DTY167; format: cell-based; conditions: for IC50: read-out: concentration required for 50% attenuation of cell density
[2] = tested on: S. cerevisiae cells expressing TaPCS1; conditions: 6 hour preincubation, 200 μM Cd2+, OD 18 hours after Cd2+
[3] = tested on: S. cerevisiae cells expressing an Arabidopsis metallothionein; experiment: Growth in presence of Cd2+ after BSO preincubation, metallothionein cells; format: cell-based; conditions: 6 hour preincubation, 60 μM Cd2+, OD 18 hours after Cd2+
Procedure: FIG. 13A is a graph depicting phytochelatin synthesis in cells expressing PCS. The growth of S. cerevisiae cells expressing either TaPCS1 (circles) or an Arabidopsis metallothionein (squares) in the presence of Cd^2+ (200 μM for TAPCS1 and 60 μM for metallothionein) following a 6 hour preincubation using different concentrations of BSO (L-Buthionine-sulfoxime), a glutathione synthesis inhibitor. The OD was measured 18 hours after the addition of Cd^2+.

TaPCS1 message = experiment: Competitive PCR of TaPCS1 expression in wheat roots; format: in vivo; conditions: wheat roots treated with 100 μM Cd2+ for 6 hours versus untreated
[4] = tested on: S. cerevisiae INVSc1 cells; experiment: Cd2+ dose-response growth of TaPCS1-expressing and control yeast cells; format: cell-based; conditions: YNB 1% sucrose/1% galactose, OD600 after 24 hours, read-out: K0.5 for growth
[5] = PC synthase activity assay (incorporation of GSH into PC2 and PC3); format: biochemical; conditions: for aggregate rate of incorporation of GSH into PC2 and PC3: purified protein
Procedure: PC synthase activity was assayed according to Grill et al. (1989, Proc. Natl. Acad. Sci. U.S.A. 86:6838-6842) in reaction media containing crude soluble fraction (50 μg protein), purified AtPCS1-FLAG (0.5 μg) or no protein, 3.3 mM GSH, 10 mM 2-mercaptoethanol and 200 mM Tris-HCl buffer (pH 8.0) plus or minus 200 μM CdCl2 at 37° C. for 40 minutes. After terminating the reactions with 5% (w/v) 5-sulfosalicylic acid, PCs were estimated in the supernatant by reverse-phase FPLC and reaction with DTNB.

[6] = Equilibrium dialysis of purified AtPCS1-FLAG against 109CdCl2; format: binding; conditions: immunoaffinity-purified protein
Procedure: The binding of Cd^2+ was determined by equilibrium dialysis of a 400-800 μl (160 μg) sample of purified AtPCS1-FLAG against 80 ml volumes of 10 mM Tris-HCl buffer, pH 7.8, containing 0.05 to 20 μM ^109CdCl2 (specific activity 22 Ci/mol, Amersham Pharmacia Biotech, Piscataway, N.J.) for 12 hours at 4° C. in 2 ml mini-collodion membrane tubes (molecular weight cut-off of 25,000; Schleicher and Schuell, Inc., Keene, N.H.). Protein-bound ^109Cd was estimated by measuring the radioactivity of the bulk medium outside the dialysis tube and that of the solution within the dialysis tube and determining the increase in ^109Cd radioactivity consequent on AtPCS1-FLAG. Binding constants and stoichiometries of binding were estimated by nonlinear least squares analysis (Marquardt, 1963, J. Soc. Ind. Appl. Math. 11:431-441) using the Ultrafit nonlinear curve fitting package from BioSoft (Ferguson, Mo.).

S. cerevisiae = experiment: Growth of PCS-expressing yeast on YNB medium with 100 μM Cd2+; format: cell-based
S. cerevisiae cells = experiment: Cd2+ accumulation using 109Cd2+; format: cell-based; conditions: versus empty pYES2 cells; 24 hour culture, non-inhibitory Cd2+ concentrations, n=3
Procedure: FIG. 10 is a graph depicting the greater accumulation of Cd^2+ by cells expressing TaPCS1 compared to the Cd^2+ accumulation by control cells. Yeast cells carrying the empty pYES2 plasmid (white bars) and TaPCS1-expressing cells (black bars) were grown in arginine-phosphate medium containing different non-inhibitory Cd^2+ concentrations. After 24 hours, the cells were harvested and washed and the amount of Cd^2+ accumulated inside the cells was determined using ^109 Cd^2+ (Error bars=S.E., n=3).
S. cerevisiae cells were grown in arginine-phosphate medium for 24 hours in the presence of various amounts of CdCl2 containing 0.5 μCi ^109Cd^2+. The cells were harvested and washed. The radioactivity was determined as described previously (Clemens et al., 1998, Proc. Natl. Acad. Sci. U.S.A. 95:12043-12048).

[Hg+2] [Hg^2+]
fold increase in concentration exerting 50% inhibition of growth in liquid culture [1]: 1.6 fold
IC50 [1]: 4 µM and 6.3 µM

CCCCS(=N)(=O)CCC(N)C(=O)O [BSO, L-Buthionine-sulfoxime]
effect on TaPCS1-mediated Cd2+ tolerance [2]: reduced the TaPCS1-mediated Cd^2+ tolerance in a dose-dependent manner
effect on metallothionein-dependent Cd2+ tolerance [3]: no effect

[Cu+2] [Cu^2+]
fold increase in concentration exerting 50% inhibition of growth in liquid culture [1]: 2.4 fold

O=[As]O [AsO2^−]
fold increase in concentration exerting 50% inhibition of growth in liquid culture [1]: 1.6 fold
IC50 [1]: 200 µM and 325 µM

[Cl][Cd][Cl] [Cd^2+, CdCl2]
fold increase in concentration exerting 50% inhibition of growth in liquid culture [1]: 24 fold
fold higher concentration of TaPCS1 message (TaPCS1 message): 5-10 fold
IC50 ([4]; TaPCS1-expressing cells): 90 µM
IC50 ([4]; control cells with empty pYES2): 6 µM

B1: AtPCS1-FLAG (protein, UniProt Q9S7Z3 1-485, looked up)
Glutathione …: MAMASLYRRSLPSPPAIDFSSAEGKLIFNEALQKGTMEGFFRLISYFQTQSEPAYCGLASLSVVLNALSIDPGRKWKGPWRWFDESMLDCCEPLEVVKEKGISFGKVVCLAHCSGAKVEAFRTSQSTIDDFRKFVVKCTSSENCHMISTYHRGVFKQTGTGHFSPIGGYNAERDMALILDVARFKYPPHWVPLKLLWEAMDSIDQSTGKRRGFMLISRPHREPGLLYTLSCKDESWIEIAKYLKEDVPRLVSSQHVDSVEKIISVVFKSLPSNFNQFIRWVAEIRITEDSNQNLSAEEKSRLKLKQLVLKEVHETELFKHINKFLSTVGYEDSLTYAAAKACCQGAEILSGSPSKEFCCRETCVKCIKGPDDSEGTVVTGVVVRDGNEQKVDLLVPSTQTECECGPEATYPAGNDVFTALLLALPPQTWSGIKDQALMHEMKQLISMASLPTLLQEEVLHLRRQLQLLKRCQENKEEDDLAAPAY
modifications: FLAG tag
aggregate rate of incorporation of GSH into PC2 and PC3 ([5]; absence of Cd2+): < 0.01 nmol/mg/min
aggregate rate of incorporation of GSH into PC2 and PC3 ([5]; presence of Cd2+ (200 μM CdCl2), 3.3 mM GSH, 37° C.): 30000 to 35000 nmol/mg/min
catalytic activity exceeding that of previous preparations from plants ([5]; versus Grill et al., 1989): more than 10^3 fold
stoichiometric ratio of Cd2+ binding (cadmium per AtPCS1) [6]: 7.09±0.94

B2: AtPCS1: Arabidopsis thaliana phytochelatin synthase, 55 kDa, SEQ ID NO: 2 (protein, UniProt Q9S7Z3 1-485, looked up)
Glutathione …: B1 Glutathione …
stoichiometric ratio of Cd2+ binding (cadmium per AtPCS1) [6]: approximately 6
Cd2+ tolerance conferred when expressed in S. cerevisiae (S. cerevisiae): strong Cd^2+ tolerance

B3: TaPCS1: wheat (Triticum aestivum) phytochelatin synthase, SEQ ID NO: 6 (protein, UniProt Q9SWW5 1-500, looked up)
Glutathione …: MEVASLYRRVLPSPPAVEFASAEGKRLFAEALQGGTMEGFFNLISYFQTQSEPAFCGLASLSVVLNALAIDPGRPWKGPWRWFDESMLDCCEPLHKVKAEGITFGKVVCLAHCAGARVQSFRADQTTIHDFRAHLTRCASSQDCHLISSYHRSPFKQTGTGHFSPIGGYHAEKDMALILDVARFKYPPHWVPLTLLWDAMNTTDEATGLLRGFMLVSRRSSAPSLLYTVSCGHGSWKSMAKYCVEDVPNLLKDESLDNVTTLLSRLVESLPANAGDLIKCVIEVRRKEEGESSLSKEEKERLFLKEKVLQQIRDTDLFRVVHELQYPKGLCGSCSSSSDEDSLAEIAATVCCQGAAFLSGNLVSRDGFCCRETCIKCIEANGDGLKTVISGTVVSKGNEQAVDLLLPTSSSKTSLCNSNLKSKIVKYPSSTDVLTVLLLVLQPNTWLGIKDENVKAEFQSLVSTDNLPDLLKQEILHLRRQLHYLAGCKGQEACQEPPSP
increase in Cd2+ accumulation (S. cerevisiae cells): 30-50%
